Data on 61 substances can be found in PMC12102759 (Protein Science : A Publication of the Protein Society, 2025).

Like-named read-outs stand apart in the source and are kept apart here.

The subject of the assay is PABPC1 PABC. Type of assay: binding, human. As to conditions: DMS-BM library, bait PABPC1 PABC, row aa = residue at this position; for DMS-derived PSSM value (averaged), position S13 / DMS-derived PSSM value, position S15: S = wild type; for DMS-derived PSSM value, position E10: E = wild type.
Where [1] appears, read: prey ATXN2, peptide KSTLNPNAKEFNPRSF, A = wild type.
Where [2] appears, read: prey ATXN2, TLNPNAKEFNPRSF(averaged) over the two overlapping peptides.
The mark [3] stands for this setting: prey ATXN2, peptide KSTLNPNAKEFNPRSF
Where [4] appears, read: prey ATXN2, TLNPNAKEFNPRSF(averaged) over the two overlapping peptides, N = wild type.
Setting [5] is: prey ATXN2, TLNPNAKEFNPRSF(averaged) over the two overlapping peptides, P = wild type.
Where [6] appears, read: prey ATXN2, peptide TLNPNAKEFNPRSFSQ, N = wild type.
Where [7] appears, read: prey ATXN2, peptide TLNPNAKEFNPRSFSQ, F = wild type.
The mark [8] stands for this setting: prey ATXN2, peptide KSTLNPNAKEFNPRSF, F = wild type.
The mark [9] stands for this setting: prey ATXN2, peptide TLNPNAKEFNPRSFSQ, L = wild type.
Where [10] appears, read: prey ATXN2, peptide KSTLNPNAKEFNPRSF, P = wild type.
Setting [11] is: prey ATXN2, peptide TLNPNAKEFNPRSFSQ, T = wild type.
Where [12] appears, read: prey ATXN2, TLNPNAKEFNPRSF(averaged) over the two overlapping peptides, F = wild type.
The mark [13] stands for this setting: prey ATXN2, peptide KSTLNPNAKEFNPRSF, L = wild type.
[14] abbreviates: prey ATXN2, peptide KSTLNPNAKEFNPRSF, N = wild type.
[15] abbreviates: prey ATXN2, peptide TLNPNAKEFNPRSFSQ, P = wild type.

As for KSTLNPNAKEFNPRSF A8P (KSTLNPNPKEFNPRSF), under setting [1], the “DMS-derived PSSM value, position A8” value is recorded as 0. Take “TLNPNAKEFNPRSF(averaged) S13M (TLNPNAKEFNPRMF)”: under setting [2], the “DMS-derived PSSM value (averaged), position S13” value turned out to be 0.01383. As to “TLNPNAKEFNPRSFSQ S15Y (TLNPNAKEFNPRSFYQ)”, the “DMS-derived PSSM value, position S15” value (prey ATXN2, peptide TLNPNAKEFNPRSFSQ) was determined as 0.004758. Turning to “KSTLNPNAKEFNPRSF E10S (KSTLNPNAKSFNPRSF)”, under setting [3], the “DMS-derived PSSM value, position E10” value worked out at 0. Consider “TLNPNAKEFNPRSF(averaged) N3Y (TLYPNAKEFNPRSF)”, for which the “DMS-derived PSSM value (averaged), position N3” value under setting [4] worked out at 0.00806. For the substance KSTLNPNAKEFNPRSF A8G (KSTLNPNGKEFNPRSF), the “DMS-derived PSSM value, position A8” value under setting [1] was determined as 0. On to “TLNPNAKEFNPRSF(averaged) P4T (TLNTNAKEFNPRSF)”, for which the “DMS-derived PSSM value (averaged), position P4” value under setting [5] stood at 0.01555. As for TLNPNAKEFNPRSFSQ N3K (TLKPNAKEFNPRSFSQ), the “DMS-derived PSSM value, position N3” value under setting [6] is listed as 0.

As for “TLNPNAKEFNPRSFSQ N10E (TLNPNAKEFEPRSFSQ)”, the “DMS-derived PSSM value, position N10” value under setting [6] came out at 0.00197. Regarding TLNPNAKEFNPRSFSQ F9W (TLNPNAKEWNPRSFSQ), under setting [7], the “DMS-derived PSSM value, position F9” value is 0.6528. Turning to “TLNPNAKEFNPRSF(averaged) P11T (TLNPNAKEFNTRSF)”, under setting [5], the “DMS-derived PSSM value (averaged), position P11” value stood at 0.141. Consider “KSTLNPNAKEFNPRSF F11L (KSTLNPNAKELNPRSF)”, for which, under setting [8], the “DMS-derived PSSM value, position F11” value is reported as 0. For the substance TLNPNAKEFNPRSFSQ L2Y (TYNPNAKEFNPRSFSQ), the “DMS-derived PSSM value, position L2” value under setting [9] amounted to 0.1104. Take “KSTLNPNAKEFNPRSF S15Q (KSTLNPNAKEFNPRQF)”: the “DMS-derived PSSM value, position S15” value under setting [3] turned out to be 0.

Turning to KSTLNPNAKEFNPRSF P6R (KSTLNRNAKEFNPRSF), the “DMS-derived PSSM value, position P6” value under setting [10] is reported as 0. In the case of KSTLNPNAKEFNPRSF K9I (KSTLNPNAIEFNPRSF), the “DMS-derived PSSM value, position K9” value (prey ATXN2, peptide KSTLNPNAKEFNPRSF, K = wild type) is on record as 0.4039. “KSTLNPNAKEFNPRSF P13F (KSTLNPNAKEFNFRSF)”: the “DMS-derived PSSM value, position P13” value under setting [10] is listed as 0.002959. Consider TLNPNAKEFNPRSFSQ T1V (VLNPNAKEFNPRSFSQ), for which the “DMS-derived PSSM value, position T1” value under setting [11] amounted to 0.03168. Regarding TLNPNAKEFNPRSFSQ N3H (TLHPNAKEFNPRSFSQ), the “DMS-derived PSSM value, position N3” value under setting [6] came out at 0. As to “TLNPNAKEFNPRSF(averaged) N5S (TLNPSAKEFNPRSF)”, under setting [4], the “DMS-derived PSSM value (averaged), position N5” value stood at 0.02321.

Regarding “TLNPNAKEFNPRSF(averaged) S13Q (TLNPNAKEFNPRQF)”, under setting [2], the “DMS-derived PSSM value (averaged), position S13” value was 0.009251.

Turning to TLNPNAKEFNPRSFSQ K7E (TLNPNAEEFNPRSFSQ), the “DMS-derived PSSM value, position K7” value (prey ATXN2, peptide TLNPNAKEFNPRSFSQ, K = wild type) was found to be 0.001823. As to “TLNPNAKEFNPRSF(averaged) F14M (TLNPNAKEFNPRSM)”, under setting [12], the “DMS-derived PSSM value (averaged), position F14” value was found to be 0.1425. As for “KSTLNPNAKEFNPRSF F16W (KSTLNPNAKEFNPRSW)”, under setting [8], the “DMS-derived PSSM value, position F16” value amounted to 0.01686.

As to “TLNPNAKEFNPRSFSQ F14K (TLNPNAKEFNPRSKSQ)”, the “DMS-derived PSSM value, position F14” value under setting [7] was found to be 0.003921. In the case of TLNPNAKEFNPRSFSQ A6I (TLNPNIKEFNPRSFSQ), the “DMS-derived PSSM value, position A6” value (prey ATXN2, peptide TLNPNAKEFNPRSFSQ, A = wild type) is listed as 0.03549. With KSTLNPNAKEFNPRSF L4K (KSTKNPNAKEFNPRSF), the “DMS-derived PSSM value, position L4” value under setting [13] is 0. In the case of “TLNPNAKEFNPRSF(averaged) N5F (TLNPFAKEFNPRSF)”, under setting [4], the “DMS-derived PSSM value (averaged), position N5” value was 0.03844. Take “KSTLNPNAKEFNPRSF E10W (KSTLNPNAKWFNPRSF)”: the “DMS-derived PSSM value, position E10” value under setting [3] is recorded as 0. As for “TLNPNAKEFNPRSFSQ R12N (TLNPNAKEFNPNSFSQ)”, the “DMS-derived PSSM value, position R12” value (prey ATXN2, peptide TLNPNAKEFNPRSFSQ, R = wild type) came out at 0.04731.

For TLNPNAKEFNPRSFSQ N5R (TLNPRAKEFNPRSFSQ), under setting [6], the “DMS-derived PSSM value, position N5” value worked out at 0.004201. As to TLNPNAKEFNPRSFSQ L2K (TKNPNAKEFNPRSFSQ), the “DMS-derived PSSM value, position L2” value under setting [9] amounted to 0.001564. On to TLNPNAKEFNPRSFSQ T1G (GLNPNAKEFNPRSFSQ), for which, under setting [11], the “DMS-derived PSSM value, position T1” value was determined as 0.1015. In the case of “TLNPNAKEFNPRSF(averaged) L2Y (TYNPNAKEFNPRSF)”, the “DMS-derived PSSM value (averaged), position L2” value (prey ATXN2, TLNPNAKEFNPRSF(averaged) over the two overlapping peptides, L = wild type) was determined as 0.0552. Consider “TLNPNAKEFNPRSF(averaged) F14D (TLNPNAKEFNPRSD)”, for which the “DMS-derived PSSM value (averaged), position F14” value under setting [12] was determined as 0.01885.

For the substance TLNPNAKEFNPRSFSQ L2Q (TQNPNAKEFNPRSFSQ), the “DMS-derived PSSM value, position L2” value under setting [9] is 0. Regarding KSTLNPNAKEFNPRSF N5Y (KSTLYPNAKEFNPRSF), the “DMS-derived PSSM value, position N5” value under setting [14] was found to be 0.01612.

Turning to “TLNPNAKEFNPRSFSQ F14S (TLNPNAKEFNPRSSSQ)”, the “DMS-derived PSSM value, position F14” value under setting [7] was 0.004424. As to “TLNPNAKEFNPRSFSQ N10D (TLNPNAKEFDPRSFSQ)”, under setting [6], the “DMS-derived PSSM value, position N10” value came to 0.08868. For “KSTLNPNAKEFNPRSF N12L (KSTLNPNAKEFLPRSF)”, the “DMS-derived PSSM value, position N12” value under setting [14] stood at 0. With KSTLNPNAKEFNPRSF P6H (KSTLNHNAKEFNPRSF), under setting [10], the “DMS-derived PSSM value, position P6” value was determined as 0.01713.

Turning to “TLNPNAKEFNPRSF(averaged) T1I (ILNPNAKEFNPRSF)”, the “DMS-derived PSSM value (averaged), position T1” value (prey ATXN2, TLNPNAKEFNPRSF(averaged) over the two overlapping peptides, T = wild type) was determined as 0.08555.

Turning to KSTLNPNAKEFNPRSF A8N (KSTLNPNNKEFNPRSF), the “DMS-derived PSSM value, position A8” value under setting [1] was determined as 0. On to “TLNPNAKEFNPRSFSQ P11Y (TLNPNAKEFNYRSFSQ)”, for which, under setting [15], the “DMS-derived PSSM value, position P11” value stood at 0.04593. With “TLNPNAKEFNPRSFSQ N10H (TLNPNAKEFHPRSFSQ)”, the “DMS-derived PSSM value, position N10” value under setting [6] is listed as 0.0229. In the case of “TLNPNAKEFNPRSF(averaged) N10S (TLNPNAKEFSPRSF)”, the “DMS-derived PSSM value (averaged), position N10” value under setting [4] came to 0.02002. “TLNPNAKEFNPRSF(averaged) P4E (TLNENAKEFNPRSF)”: the “DMS-derived PSSM value (averaged), position P4” value under setting [5] came to 0.0008442. TLNPNAKEFNPRSFSQ P4M (TLNMNAKEFNPRSFSQ): the “DMS-derived PSSM value, position P4” value under setting [15] worked out at 0.001164. Regarding TLNPNAKEFNPRSFSQ L2W (TWNPNAKEFNPRSFSQ), the “DMS-derived PSSM value, position L2” value under setting [9] came out at 0.1455.

As to TLNPNAKEFNPRSFSQ T1Q (QLNPNAKEFNPRSFSQ), under setting [11], the “DMS-derived PSSM value, position T1” value was 0.00769. As for “TLNPNAKEFNPRSFSQ N10W (TLNPNAKEFWPRSFSQ)”, the “DMS-derived PSSM value, position N10” value under setting [6] is listed as 0.06015. On to TLNPNAKEFNPRSFSQ L2E (TENPNAKEFNPRSFSQ), for which the “DMS-derived PSSM value, position L2” value under setting [9] is 0.08907. Turning to “KSTLNPNAKEFNPRSF F11D (KSTLNPNAKEDNPRSF)”, the “DMS-derived PSSM value, position F11” value under setting [8] worked out at 0. “KSTLNPNAKEFNPRSF N12E (KSTLNPNAKEFEPRSF)”: the “DMS-derived PSSM value, position N12” value under setting [14] is 0.06073.

In the case of “TLNPNAKEFNPRSF(averaged) F14Y (TLNPNAKEFNPRSY)”, the “DMS-derived PSSM value (averaged), position F14” value under setting [12] is given as 0.08672.

Consider “TLNPNAKEFNPRSF(averaged) N10D (TLNPNAKEFDPRSF)”, for which the “DMS-derived PSSM value (averaged), position N10” value under setting [4] turned out to be 0.04905.

For “KSTLNPNAKEFNPRSF P13D (KSTLNPNAKEFNDRSF)”, the “DMS-derived PSSM value, position P13” value under setting [10] is 0.0004732. For the substance TLNPNAKEFNPRSFSQ N5I (TLNPIAKEFNPRSFSQ), under setting [6], the “DMS-derived PSSM value, position N5” value amounted to 0.01004.

As to “TLNPNAKEFNPRSF(averaged) P4L (TLNLNAKEFNPRSF)”, the “DMS-derived PSSM value (averaged), position P4” value under setting [5] was 0.1003. As to “KSTLNPNAKEFNPRSF S15I (KSTLNPNAKEFNPRIF)”, the “DMS-derived PSSM value, position S15” value under setting [3] was found to be 0.03802.

Regarding KSTLNPNAKEFNPRSF L4Y (KSTYNPNAKEFNPRSF), the “DMS-derived PSSM value, position L4” value under setting [13] is recorded as 0.
